Test results published in ChEMBL document CHEMBL5465560, “Selectivity Literature for EUbOPEN Chemogenomic Library” (2024).
Each block holds one compound with its values, some of them ahead of it.

Legend:
[1] = target: Casein kinase II subunit alpha' (Homo sapiens) (UniProt P19784); test: Selectivity interaction (Kinase panel (Z-LYTE Assay)) EUB0001632a CSNK2A2; conditions: at 10 µM
[2] = target: Histone-lysine N-methyltransferase 2C (Homo sapiens) (UniProt Q8NEZ4); test: Selectivity interaction (Methyltransferase screen (radiometric assays, panel of 8 PRMTs, 21 protein lysine methyltransferases, 3 DNA methyltransferases, and one RNA methyltransferase)) EUB0000272b MLL3
[3] = target: T1, Serine/threonine-protein kinase TNNI3K (Homo sapiens) (UniProt Q59H18); conditions: at 10 µM
T1 sequence (whole entry): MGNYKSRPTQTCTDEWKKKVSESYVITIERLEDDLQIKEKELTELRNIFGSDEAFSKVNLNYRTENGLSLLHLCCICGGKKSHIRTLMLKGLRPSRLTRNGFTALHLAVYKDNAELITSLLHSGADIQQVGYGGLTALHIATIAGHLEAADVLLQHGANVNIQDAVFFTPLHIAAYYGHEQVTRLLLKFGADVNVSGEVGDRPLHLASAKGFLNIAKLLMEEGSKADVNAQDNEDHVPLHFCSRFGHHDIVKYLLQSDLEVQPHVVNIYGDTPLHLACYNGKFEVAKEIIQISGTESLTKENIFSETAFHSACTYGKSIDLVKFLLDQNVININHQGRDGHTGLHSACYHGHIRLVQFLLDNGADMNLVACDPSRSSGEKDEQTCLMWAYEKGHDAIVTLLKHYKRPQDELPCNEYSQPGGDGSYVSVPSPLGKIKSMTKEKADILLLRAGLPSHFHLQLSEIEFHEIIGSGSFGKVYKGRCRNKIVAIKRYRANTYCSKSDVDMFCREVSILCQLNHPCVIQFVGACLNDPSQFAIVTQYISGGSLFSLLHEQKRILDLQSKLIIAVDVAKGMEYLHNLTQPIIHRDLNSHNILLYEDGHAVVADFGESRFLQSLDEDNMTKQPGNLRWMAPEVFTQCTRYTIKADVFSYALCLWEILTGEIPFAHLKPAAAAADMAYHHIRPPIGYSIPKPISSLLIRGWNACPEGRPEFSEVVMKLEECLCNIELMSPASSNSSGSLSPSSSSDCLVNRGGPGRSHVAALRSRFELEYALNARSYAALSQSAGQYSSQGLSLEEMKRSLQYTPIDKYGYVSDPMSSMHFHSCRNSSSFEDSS

[4] = target: Tyrosine-protein kinase JAK1 (Homo sapiens, UniProt P23458); test: Selectivity interaction (ActivX KiNativ screen (kinase selectivity in THP-1 cell lysates)) EUB0000639a JAK1; assay type: subcellular; conditions: lysate, at 0.01 µM
[5] = target: Protein kinase C delta type (Homo sapiens) (UniProt Q05655); test: Selectivity interaction (ProQinase) EUB0000171b PRKCD
[6] = target: T2, Dual specificity mitogen-activated protein kinase kinase 6 (Homo sapiens) (UniProt P52564); test: Selectivity interaction (ProQinase) EUB0000171b MAP2K6
T2 sequence (whole entry): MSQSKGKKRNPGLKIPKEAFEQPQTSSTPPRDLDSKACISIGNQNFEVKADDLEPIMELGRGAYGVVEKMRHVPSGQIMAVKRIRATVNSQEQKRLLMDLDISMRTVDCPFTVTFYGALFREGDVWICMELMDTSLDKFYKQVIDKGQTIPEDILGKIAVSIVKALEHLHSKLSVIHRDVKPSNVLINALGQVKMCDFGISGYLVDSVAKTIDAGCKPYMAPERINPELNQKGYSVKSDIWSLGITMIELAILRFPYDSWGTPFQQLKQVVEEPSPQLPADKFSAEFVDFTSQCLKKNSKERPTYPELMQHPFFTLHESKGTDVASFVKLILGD

[7] = target: Polycomb protein SUZ12 (Homo sapiens) (UniProt Q15022); conditions: at 1 µM
[8] = target: MAP kinase-interacting serine/threonine-protein kinase 2 (Homo sapiens, UniProt Q9HBH9); test: Selectivity interaction (KinomeScan (DiscoverX)) EUB0000229b MKNK2; conditions: at 10 µM
[9] = target: T3, Receptor-interacting serine/threonine-protein kinase 4 (Homo sapiens) (UniProt P57078); test: Selectivity interaction (KinomeScan (DiscoverX)) EUB0000229b RIPK4; conditions: at 10 µM
T3 sequence (whole entry): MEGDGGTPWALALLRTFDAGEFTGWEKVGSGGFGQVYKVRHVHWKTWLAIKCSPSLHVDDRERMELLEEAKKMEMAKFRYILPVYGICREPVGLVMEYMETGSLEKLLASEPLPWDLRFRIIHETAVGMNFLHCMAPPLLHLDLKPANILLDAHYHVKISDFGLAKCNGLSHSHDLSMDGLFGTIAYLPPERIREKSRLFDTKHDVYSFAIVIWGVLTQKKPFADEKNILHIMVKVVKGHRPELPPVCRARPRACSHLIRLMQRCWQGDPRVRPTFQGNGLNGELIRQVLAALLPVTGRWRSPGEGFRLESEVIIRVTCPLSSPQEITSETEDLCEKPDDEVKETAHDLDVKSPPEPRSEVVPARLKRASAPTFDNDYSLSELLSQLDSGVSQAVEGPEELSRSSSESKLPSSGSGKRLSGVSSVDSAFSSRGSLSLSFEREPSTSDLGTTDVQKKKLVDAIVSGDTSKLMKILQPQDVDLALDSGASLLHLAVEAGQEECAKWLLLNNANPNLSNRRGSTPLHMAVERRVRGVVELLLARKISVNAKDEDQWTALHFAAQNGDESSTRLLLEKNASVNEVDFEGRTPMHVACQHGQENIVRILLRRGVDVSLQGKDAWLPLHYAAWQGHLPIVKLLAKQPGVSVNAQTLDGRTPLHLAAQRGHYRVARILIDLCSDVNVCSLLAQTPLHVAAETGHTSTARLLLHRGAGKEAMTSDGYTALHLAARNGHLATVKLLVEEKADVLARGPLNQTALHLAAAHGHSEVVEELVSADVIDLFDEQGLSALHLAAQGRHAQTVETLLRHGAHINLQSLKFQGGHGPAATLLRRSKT

[10] = target: Ribosomal protein S6 kinase alpha-5 (Homo sapiens) (UniProt O75582); test: Selectivity interaction (ActivX KiNativ screen (ex vivo kinase selectivity in human PBMCs)) EUB0001619a RPS6KA5; assay type: cell-based; conditions: PBMC, at 1 µM
Sequence of Ribosomal protein S6 kinase alpha-5 (Homo sapiens) (O75582 whole entry, looked up): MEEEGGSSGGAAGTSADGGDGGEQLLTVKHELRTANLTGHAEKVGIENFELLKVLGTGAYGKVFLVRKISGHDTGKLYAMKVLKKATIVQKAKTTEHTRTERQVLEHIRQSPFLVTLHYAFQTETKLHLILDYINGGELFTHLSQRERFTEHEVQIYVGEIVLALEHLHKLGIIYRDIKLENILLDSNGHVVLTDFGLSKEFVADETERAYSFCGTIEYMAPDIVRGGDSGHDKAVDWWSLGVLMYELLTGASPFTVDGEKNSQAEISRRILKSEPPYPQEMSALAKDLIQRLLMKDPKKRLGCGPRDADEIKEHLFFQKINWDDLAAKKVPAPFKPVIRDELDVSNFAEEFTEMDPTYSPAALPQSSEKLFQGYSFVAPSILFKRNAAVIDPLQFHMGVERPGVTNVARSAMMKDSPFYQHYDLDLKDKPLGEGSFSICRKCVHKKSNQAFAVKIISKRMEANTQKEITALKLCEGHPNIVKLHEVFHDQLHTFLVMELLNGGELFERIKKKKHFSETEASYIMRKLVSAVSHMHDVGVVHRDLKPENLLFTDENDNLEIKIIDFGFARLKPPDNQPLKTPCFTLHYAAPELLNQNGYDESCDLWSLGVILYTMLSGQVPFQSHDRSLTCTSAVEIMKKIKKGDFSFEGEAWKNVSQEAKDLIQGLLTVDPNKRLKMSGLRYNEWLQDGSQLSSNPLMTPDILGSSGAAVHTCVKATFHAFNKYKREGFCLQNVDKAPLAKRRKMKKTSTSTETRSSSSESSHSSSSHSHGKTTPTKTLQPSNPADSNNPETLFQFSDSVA

Sequence of Protein kinase C delta type (Homo sapiens) (Q05655 whole entry, looked up): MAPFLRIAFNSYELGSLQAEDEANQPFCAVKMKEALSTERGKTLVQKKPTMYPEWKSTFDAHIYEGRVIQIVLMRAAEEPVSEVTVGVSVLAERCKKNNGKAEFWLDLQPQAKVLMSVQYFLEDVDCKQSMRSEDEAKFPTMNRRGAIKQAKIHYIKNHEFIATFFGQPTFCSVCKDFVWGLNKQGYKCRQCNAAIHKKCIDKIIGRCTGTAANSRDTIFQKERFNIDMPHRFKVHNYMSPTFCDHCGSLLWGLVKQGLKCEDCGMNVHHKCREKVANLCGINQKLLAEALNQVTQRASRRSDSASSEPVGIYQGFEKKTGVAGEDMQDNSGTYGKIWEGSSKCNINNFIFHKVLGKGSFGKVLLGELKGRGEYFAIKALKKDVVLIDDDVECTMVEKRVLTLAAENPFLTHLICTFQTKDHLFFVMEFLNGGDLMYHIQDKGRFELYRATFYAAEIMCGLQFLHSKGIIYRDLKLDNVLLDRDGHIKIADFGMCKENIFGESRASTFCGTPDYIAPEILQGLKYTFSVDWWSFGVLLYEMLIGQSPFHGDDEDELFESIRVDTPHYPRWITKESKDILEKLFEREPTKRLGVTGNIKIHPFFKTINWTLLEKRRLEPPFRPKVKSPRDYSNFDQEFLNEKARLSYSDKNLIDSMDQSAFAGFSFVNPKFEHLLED
Sequence of MAP kinase-interacting serine/threonine-protein kinase 2 (Q9HBH9 whole entry, looked up): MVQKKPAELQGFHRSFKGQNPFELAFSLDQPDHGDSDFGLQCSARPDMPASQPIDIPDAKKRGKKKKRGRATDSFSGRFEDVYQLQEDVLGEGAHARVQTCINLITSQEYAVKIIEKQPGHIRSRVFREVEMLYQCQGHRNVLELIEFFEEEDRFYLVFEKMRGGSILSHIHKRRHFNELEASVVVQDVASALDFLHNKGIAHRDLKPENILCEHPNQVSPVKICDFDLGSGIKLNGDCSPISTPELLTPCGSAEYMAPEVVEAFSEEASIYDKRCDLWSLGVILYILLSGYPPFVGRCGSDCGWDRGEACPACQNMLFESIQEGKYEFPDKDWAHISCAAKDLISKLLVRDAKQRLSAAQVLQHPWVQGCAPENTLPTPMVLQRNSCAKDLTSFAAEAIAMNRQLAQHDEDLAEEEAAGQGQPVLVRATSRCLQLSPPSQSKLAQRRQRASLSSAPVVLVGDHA
Sequence of Polycomb protein SUZ12 (Homo sapiens) (Q15022 whole entry): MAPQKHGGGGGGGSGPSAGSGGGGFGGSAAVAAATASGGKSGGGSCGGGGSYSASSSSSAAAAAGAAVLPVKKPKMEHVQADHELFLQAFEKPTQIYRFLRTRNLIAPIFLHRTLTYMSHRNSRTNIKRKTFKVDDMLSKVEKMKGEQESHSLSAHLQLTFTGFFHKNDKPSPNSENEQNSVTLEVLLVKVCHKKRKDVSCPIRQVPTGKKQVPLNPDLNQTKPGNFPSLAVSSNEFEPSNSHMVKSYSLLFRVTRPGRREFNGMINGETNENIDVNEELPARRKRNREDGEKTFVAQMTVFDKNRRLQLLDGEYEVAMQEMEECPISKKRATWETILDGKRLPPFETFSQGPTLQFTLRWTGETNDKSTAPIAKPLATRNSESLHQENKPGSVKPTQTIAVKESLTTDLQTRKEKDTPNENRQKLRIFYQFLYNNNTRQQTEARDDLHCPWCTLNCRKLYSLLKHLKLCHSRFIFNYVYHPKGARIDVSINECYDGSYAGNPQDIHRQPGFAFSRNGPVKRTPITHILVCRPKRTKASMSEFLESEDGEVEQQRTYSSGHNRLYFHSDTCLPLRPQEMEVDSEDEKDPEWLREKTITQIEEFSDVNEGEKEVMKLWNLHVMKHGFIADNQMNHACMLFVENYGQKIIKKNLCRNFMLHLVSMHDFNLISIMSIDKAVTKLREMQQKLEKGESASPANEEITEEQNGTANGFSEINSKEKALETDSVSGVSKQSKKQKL
Sequence of Tyrosine-protein kinase JAK1 (P23458 whole entry): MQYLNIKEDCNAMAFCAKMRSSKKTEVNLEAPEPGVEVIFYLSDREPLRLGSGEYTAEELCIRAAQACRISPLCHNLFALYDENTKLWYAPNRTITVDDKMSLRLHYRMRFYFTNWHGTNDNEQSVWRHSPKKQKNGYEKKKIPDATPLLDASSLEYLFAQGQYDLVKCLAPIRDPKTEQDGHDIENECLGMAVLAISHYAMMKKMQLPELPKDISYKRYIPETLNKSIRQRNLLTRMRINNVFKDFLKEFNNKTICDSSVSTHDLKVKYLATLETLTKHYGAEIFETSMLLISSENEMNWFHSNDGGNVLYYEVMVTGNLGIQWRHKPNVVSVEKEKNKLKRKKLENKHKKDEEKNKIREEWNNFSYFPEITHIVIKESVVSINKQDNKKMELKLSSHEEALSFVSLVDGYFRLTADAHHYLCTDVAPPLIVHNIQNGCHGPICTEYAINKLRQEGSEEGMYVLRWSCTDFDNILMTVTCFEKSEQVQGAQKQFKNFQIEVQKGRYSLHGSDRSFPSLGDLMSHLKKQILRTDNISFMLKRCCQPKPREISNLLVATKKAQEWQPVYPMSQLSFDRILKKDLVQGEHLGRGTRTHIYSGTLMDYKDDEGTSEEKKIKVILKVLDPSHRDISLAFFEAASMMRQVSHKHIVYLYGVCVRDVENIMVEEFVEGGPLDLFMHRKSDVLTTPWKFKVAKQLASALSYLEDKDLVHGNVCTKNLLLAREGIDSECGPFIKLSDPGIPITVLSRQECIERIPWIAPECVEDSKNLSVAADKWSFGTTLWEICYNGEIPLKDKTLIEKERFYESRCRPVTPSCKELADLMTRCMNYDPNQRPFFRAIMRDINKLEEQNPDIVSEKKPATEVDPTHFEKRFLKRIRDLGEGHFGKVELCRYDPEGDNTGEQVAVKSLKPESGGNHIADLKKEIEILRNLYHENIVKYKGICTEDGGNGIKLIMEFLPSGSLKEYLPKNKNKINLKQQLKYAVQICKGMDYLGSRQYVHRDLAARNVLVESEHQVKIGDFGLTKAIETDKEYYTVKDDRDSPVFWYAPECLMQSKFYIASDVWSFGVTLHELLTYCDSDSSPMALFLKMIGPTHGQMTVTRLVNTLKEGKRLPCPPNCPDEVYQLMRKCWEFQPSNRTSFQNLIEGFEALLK
Sequence of Casein kinase II subunit alpha' (Homo sapiens) (P19784 whole entry, looked up): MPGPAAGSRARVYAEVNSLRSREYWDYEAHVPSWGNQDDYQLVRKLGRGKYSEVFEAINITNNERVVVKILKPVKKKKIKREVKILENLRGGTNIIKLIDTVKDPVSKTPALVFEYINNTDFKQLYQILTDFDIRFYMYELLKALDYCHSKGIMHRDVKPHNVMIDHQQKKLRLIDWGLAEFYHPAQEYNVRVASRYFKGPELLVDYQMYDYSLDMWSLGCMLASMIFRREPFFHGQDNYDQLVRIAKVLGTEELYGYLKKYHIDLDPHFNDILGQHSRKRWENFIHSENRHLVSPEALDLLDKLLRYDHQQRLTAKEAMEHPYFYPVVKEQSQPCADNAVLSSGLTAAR

SMILES: Cn1cc(-n2cnc3c(NCc4nc5cc(Cl)c(Cl)cc5[nH]4)nc(N4CCOCC4)nc32)cn1
% of control [1]: 1.8%

SMILES: CCN(CC)CCCCNc1ncc2cc(-c3cc(OC)cc(OC)c3)c(NC(=O)NC(C)(C)C)nc2n1
% of control [3]: 100%

SMILES: COc1cc(N(C)c2ccnc3ccc(C(F)(F)F)cc23)cc(OC)c1OC
% binding [8]: 90%
% binding [9]: 68%

SMILES: N#Cc1cccc(-c2c[nH]c3ncnc(N4CCOCC4)c23)c1
% of inhibition [10]: 20%

The next lines start with the values.

% of activity ([2]; at 1 µM): 101%
% of activity ([2]; at 10 µM): 92%
SMILES: Cc1cc(C)cc([C@H]2c3cc(C)ccc3NC(=O)CN2C(=O)c2ccc(Br)s2)c1

% of inhibition [4]: -1.9%
SMILES: CC[C@@H]1[C@H](F)C(=O)N[C@@H]1COc1nccc2cc(C(N)=O)c(OC)cc12 [ZIMLOVISERTIB]

% of control ([5]; at 1 µM): 84%
% of control ([5]; at 5 µM): 94%
% of control ([6]; at 1 µM): 103%
% of control ([6]; at 5 µM): 126%
SMILES: C=CC(=O)Nc1cccc(C(=O)Nc2ccc(Nc3cc(-c4[nH]c(SC)nc4C)ccn3)cc2)c1

% activity [7]: > 90%
SMILES: CNCCN1CCC(c2cc(CN(C)C(=O)c3cccc(Oc4ccccc4)c3)ccn2)CC1
